The values that follow come from patent US8686130B2, “Artificial fluorescent bases” (Riken, priority 2009, dated 2014).

Several values for one entry are separate records, joined by “and”; a condition that tells them apart may be missing. Equal entries are not always repeated. Where two headings read alike, the source gives them in different places.

The nature of data set [1]: Fluorescence characteristics of base analog nucleosides. The class given is physicochemical. To be noted: for Fluorescence emitted by excitation at a wavelength of 350 nm or more: excitation 350 nm or more; for Absorption maximum / Fluorescence intensity (ε × φ) / Fluorescence wavelength / Molar absoption coefficient ε / Stokes shift / Excitation wavelength: deoxyribonucleoside derivative; for Quantum yield (φ): quinine sulfate as a standard. The procedure: Reagents and solvents were purchased from typical suppliers and were used without further purification. ^1H-NMR (300 MHz, 270 MHz) and ^31P-NMR (121 MHz) spectra were recorded on a BRUKER AV300 or JEOL nuclear magnetic resonance spectrometer. Synthesized nucleoside derivatives and nucleoside 5′-triphosphate were purified with a Gilson HPLC system using a fractionation column (Waters Microbond Sphere, C18, 19 mm×150 mm, flow rate: 10 mL/min) and a fractionation column (PEGASIL C8, Senshu Scientific Co., Ltd., 10 mm×150 mm, flow rate: 6 mL/min), respectively. Electrospray-ionization mass spectra (ESI-MS) were recorded on a Waters ZMD 4000 mass system equipped with a Waters 2690 LC system. Fluorescence spectra were measured with a JASCO FP6500 fluorescence spectrometer, and fluorescence quantum yields were determined using quinine sulfate as a standard.
Fluorescence characteristics of nucleosides including an unnatural base, ss, sss, Dss, Dsss, Dsas, Dsav, or Dvas, were evaluated. For comparison, fluorescence characteristics of nucleosides including known unnatural bases, 2-aminopurine, s (2-amino-6-(2-thienyl)purin-9-yl group), v (2-amino-6-(2-thiazolyl)purin-9-yl group), and Ds (7-(2-thienyl)imidazo[4,5-b]pyridin-3-yl group) were also evaluated.

The conditions of data set [2]: cited from earlier work.
The next data set addresses T7 RNA polymerase (Escherichia phage T7, UniProt P00573). The conditions noted are these: 0.05 to 0.1 mM substrate, 1 mM natural NTPs, 37° C., 3 hr.
In another data set the target is Klenow fragment (exo+) (Escherichia coli, UniProt P00582). The conditions noted are these: 0.5 μM dDssTP with 10 μM natural base substrate, 37° C.
Klenow fragment (exo+), sequence (P00582 324-928): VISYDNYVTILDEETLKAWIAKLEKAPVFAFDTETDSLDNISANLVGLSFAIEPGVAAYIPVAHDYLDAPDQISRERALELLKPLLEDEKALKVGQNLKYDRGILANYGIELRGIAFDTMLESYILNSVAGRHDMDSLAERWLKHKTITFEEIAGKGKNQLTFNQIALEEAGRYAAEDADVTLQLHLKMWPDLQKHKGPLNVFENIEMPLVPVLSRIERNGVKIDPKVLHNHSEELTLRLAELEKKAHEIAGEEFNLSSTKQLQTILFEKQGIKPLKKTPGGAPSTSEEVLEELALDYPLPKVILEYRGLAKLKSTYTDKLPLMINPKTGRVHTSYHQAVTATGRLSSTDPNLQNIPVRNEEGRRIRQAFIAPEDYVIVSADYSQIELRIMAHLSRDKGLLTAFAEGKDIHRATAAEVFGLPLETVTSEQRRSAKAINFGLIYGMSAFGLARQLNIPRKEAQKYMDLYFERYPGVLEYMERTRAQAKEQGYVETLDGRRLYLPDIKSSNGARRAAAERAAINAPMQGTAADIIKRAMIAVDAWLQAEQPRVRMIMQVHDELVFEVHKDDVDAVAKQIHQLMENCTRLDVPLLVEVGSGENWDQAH
Setting [3] is: from Ward et al., J. Biol. Chem. 1969.

T7 RNA polymerase, sequence (P00573 whole entry, the tested form may be a part): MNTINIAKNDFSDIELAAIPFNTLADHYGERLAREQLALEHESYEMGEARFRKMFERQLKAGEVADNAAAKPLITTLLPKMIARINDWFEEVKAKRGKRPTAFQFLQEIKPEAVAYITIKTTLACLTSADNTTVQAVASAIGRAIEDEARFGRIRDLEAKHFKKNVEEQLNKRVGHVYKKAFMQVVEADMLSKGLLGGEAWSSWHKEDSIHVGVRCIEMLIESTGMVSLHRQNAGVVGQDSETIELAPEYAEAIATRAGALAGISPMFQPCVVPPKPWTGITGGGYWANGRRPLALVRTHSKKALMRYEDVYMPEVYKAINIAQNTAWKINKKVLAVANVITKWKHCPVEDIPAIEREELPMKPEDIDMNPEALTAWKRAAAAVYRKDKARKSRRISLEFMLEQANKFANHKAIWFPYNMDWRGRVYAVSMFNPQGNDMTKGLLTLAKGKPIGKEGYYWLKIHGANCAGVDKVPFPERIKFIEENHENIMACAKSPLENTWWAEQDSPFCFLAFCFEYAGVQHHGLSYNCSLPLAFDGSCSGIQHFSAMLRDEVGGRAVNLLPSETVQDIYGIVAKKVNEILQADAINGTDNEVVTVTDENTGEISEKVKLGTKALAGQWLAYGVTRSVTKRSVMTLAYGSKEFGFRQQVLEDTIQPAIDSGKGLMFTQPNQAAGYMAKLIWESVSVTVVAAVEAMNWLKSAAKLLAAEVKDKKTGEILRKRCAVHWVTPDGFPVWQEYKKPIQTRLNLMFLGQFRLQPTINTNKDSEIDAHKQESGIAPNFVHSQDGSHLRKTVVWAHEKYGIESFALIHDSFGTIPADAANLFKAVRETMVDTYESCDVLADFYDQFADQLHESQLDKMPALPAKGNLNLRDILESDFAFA
Protocol for Klenow fragment (exo+): Template strand DNA (SEQ ID NO: 1,35-mer, 400 nM) dissolved in 2× reaction buffer (20 mM tris-HCl, pH 7.5, 14 mM MgCl2, 0.2 mM DTT) and a primer labeled with ^32P at the 5′-end (SEQ ID NO: 2,23-mer, 400 nM) were heated at 95° C. for 3 min and then slowly cooled for annealing to form a double strand. To each 5 μL of the resulting double-stranded DNA solution, 2.5 μL of a 4×dNTP solution mixture (40 μM dTTP, 40 μM dCTP, 0 to 40 μM dDssTP) and 2.5 μL (1 unit) of Klenow fragment (Takara Shuzo Co., Ltd.) diluted with water were added to start the enzyme reaction at 37° C. After incubation at 37° C., the reaction was terminated by addition of a TBE solution containing 10 μL of 10 M urea and heating at 75° C. for 3 min. A part of the reaction solution was subjected to electrophoresis with 15% polyacrylamide-7 M urea gel and analyzed with a bio-imaging analyzer (FLA7000, Fujifilm Corporation).
Protocol for T7 RNA polymerase: Templates for transcription by the T7 polymerase were prepared by heating chemically synthesized two DNA strands (10 μM coding strand (SEQ ID NO: 4) of 35-mer and non-coding strand (SEQ ID NO: 5) of 21-mer) at 95° C. in a 10 mM Tris-HCl buffer (pH 7.6) containing 10 mM NaCl and then slowly cooled to 4° C. for annealing. The transcription by the T7 polymerase was performed by using 2 μM of the template and 50 units of a T7 RNA polymerase (Takara Shuzo Co., Ltd., Kyoto) in a 40 mM Tris-HCl buffer (pH 8.0, 20 μL) containing 24 mM MgCl2, 2 mM spermidine, 5 mM DTT, and 0.01% Triton X-100 in the presence of 1 mM natural NTPs, 0.05 to 0.1 mM ssTP or DssTP (ribonucleoside 5′-triphosphate of ss or Dss). After the reaction at 37° C. for 3 hr, the reaction was terminated by addition of a dye solution (20 μL) containing 10 M urea and 0.05% BPB. […] The transcription product was protected by placing the gel on a TLC containing a fluorescent indicator, irradiating the gel with UV of 254 nm, and photographing the image with a Polaroid camera utilizing the phenomenon that nucleic acid absorbs the UV and thereby the band of the transcription product is detected as an image. The transcript including the unnatural fluorescent base ss or Dss was detected with a bio-imaging analyzer, LAS 4000 (Fujifilm Corporation) utilizing epi-UV LED.

Turning to `Nc1ncc2[nH]cnc2n1` [2-aminopurine], the “Fluorescence emitted by excitation at a wavelength of 350 nm or more” value in data set [1] is on record as “considerably low”. In data set [2] (setting [3]), the Absorption maximum is given as 304 nm, the Excitation wavelength result was “about 300 nm”, the “Fluorescence intensity (ε × φ)” value is 4828 and the Fluorescence wavelength is recorded as 370 nm. Also, in data set [2] (setting [3]), the “Molar absoption coefficient ε” value was 7100 M⁻¹ cm⁻¹, the “Quantum yield (φ)” value is listed as 0.68 and the Stokes shift is given as 67 nm. The Excitation wavelength in data set [2] (from Ward et al., J. Biol. Chem. 1969, listed as 2-aminoprine) is 303 nm.

As for `O=P(O)(O)OP(=O)(O)OP(=O)(O)OC[C@H]1O[C@@H](n2cnc3c(-c4ccc(-c5cccs5)s4)ccnc32)[C@H](O)[C@@H]1O` [DssTP, 7-(2,2′-bithien-5-yl)-3-(β-D-ribofuranosyl)imidazo[4,5-b]pyridine 5′-triphosphate], the “Incorporation into RNA opposite Pa in template DNA” value on T7 RNA polymerase is “selectively incorporated into RNA depending on Pa”.

As for `OC[C@H]1O[C@@H](n2cnc3c(-c4cccs4)ccnc32)C[C@@H]1O` [dDs, reference compound], in data set [1], the Absorption maximum was 313 nm, the “Fluorescence intensity (ε × φ)” value turned out to be 4180, the Fluorescence wavelength was 366 nm and the “Molar absoption coefficient ε” value was found to be 22000 M⁻¹ cm⁻¹. In data set [1], the Stokes shift came to 54 nm, the “Fluorescence emitted by excitation at a wavelength of 350 nm or more” value was “does not emit light” and the “Quantum yield (φ)” value was 0.19.

Take `OC[C@H]1O[C@@H](n2ccc3c(-c4ccc(-c5cccs5)s4)ccnc32)C[C@@H]1O` [dDsas, 1-[2-deoxy-β-D-ribofuranosyl]-4-(2,2′-bithien-5-yl)-pyrrolo[2,3-b]pyridine]: in data set [1], the Absorption maximum turned out to be 365 nm, the Excitation wavelength is 367 nm, the “Fluorescence intensity (ε × φ)” value was found to be 2795 and the Fluorescence wavelength turned out to be 451 nm. In data set [1], the “Molar absoption coefficient ε” value worked out at 21500 M⁻¹ cm⁻¹, the Stokes shift is on record as 84 nm and the “Quantum yield (φ)” value is 0.13.

On to `OC[C@H]1O[C@@H](n2ccc3c(-c4ccc(-c5nccs5)s4)ccnc32)C[C@@H]1O` [dDsav, 1-[2-deoxy-β-D-ribofuranosyl]-4-[2-(2-thiazolyl)thien-5-yl]pyrrolo[2,3-b]pyridine], for which, in data set [1], the Absorption maximum is 365 nm, the Excitation wavelength was 368 nm, the “Fluorescence intensity (ε × φ)” value came out at 2795 and the Fluorescence wavelength is 445 nm. Moreover, in data set [1], the “Molar absoption coefficient ε” value was found to be 21500 M⁻¹ cm⁻¹, the Stokes shift was 77 nm and the “Quantum yield (φ)” value was determined as 0.13.

With `OC[C@H]1O[C@@H](n2cnc3c(-c4ccc(-c5cccs5)s4)ccnc32)C[C@@H]1O` [dDss, 7-(2,2′-bithien-5-yl)-3-(2-deoxy-β-D-ribofuranosyl)imidazo[4,5-b]pyridine], in data set [1], the Absorption maximum came out at 370 nm, the Excitation wavelength came to 371 nm, the “Fluorescence intensity (ε × φ)” value is 10400 and the Fluorescence wavelength was 442 nm. In data set [1], the “Molar absoption coefficient ε” value came to 32500 M⁻¹ cm⁻¹, the Stokes shift came to 71 nm and the “Quantum yield (φ)” value is given as 0.32.

For the compound `O=P(O)(O)OP(=O)(O)OP(=O)(O)OC[C@H]1O[C@@H](n2cnc3c(-c4ccc(-c5cccs5)s4)ccnc32)C[C@@H]1O` [dDssTP, 7-(2,2′-bithien-5-yl)-3-(2-deoxy-β-D-ribofuranosyl)imidazo[4,5-b]pyridine 5′-triphosphate], the “Incorporation into DNA opposite Pa in template DNA” value at Klenow fragment (exo+) is given as “selectively incorporated into a complementary DNA strand”.

For the compound `OC[C@H]1O[C@@H](n2cnc3c(-c4ccc(-c5ccc(-c6cccs6)s5)s4)ccnc32)C[C@@H]1O` [dDsss, 7-(2,2′,5′,2″-terthien-5-yl)-3-(2-deoxy-β-D-ribofuranosyl)imidazo[4,5-b]pyridine], in data set [1], the Absorption maximum stood at 403 nm, the Excitation wavelength turned out to be 407 nm, the “Fluorescence intensity (ε × φ)” value was 3132 and the Fluorescence wavelength amounted to 489 nm. In data set [1], the “Molar absoption coefficient ε” value was 34800 M⁻¹ cm⁻¹, the Stokes shift is 82 nm and the “Quantum yield (φ)” value is 0.09.

Regarding `OC[C@H]1O[C@@H](n2ccc3c(-c4ncc(-c5cccs5)s4)ccnc32)C[C@@H]1O` [dDvas, 1-[2-deoxy-β-D-ribofuranosyl]-4-[5-(2-thienyl)thiazol-2-yl]pyrrolo[2,3-b]pyridine], in data set [1], the Absorption maximum is recorded as 377 nm, the Excitation wavelength turned out to be 378 nm, the “Fluorescence intensity (ε × φ)” value was 3780 and the Fluorescence wavelength was 449 nm. Moreover, in data set [1], the “Molar absoption coefficient ε” value came to 27000 M⁻¹ cm⁻¹, the Stokes shift is recorded as 71 nm and the “Quantum yield (φ)” value is on record as 0.14.

Regarding `c1csc(-c2ccnc3nc[nH]c23)c1` [ds, 7-(2-thienyl)-imidazo[4,5-b]pyridine, reference compound], in data set [1], the Absorption maximum amounted to 353 nm; the Excitation wavelength is 350 nm and 351 nm; the “Fluorescence intensity (ε × φ)” value is 2576; the Fluorescence wavelength came out at 429 nm. In data set [1], the “Molar absoption coefficient ε” value turned out to be 11200 M⁻¹ cm⁻¹, the Stokes shift is listed as 78 nm and the “Quantum yield (φ)” value was determined as 0.23. Also, the “Fluorescence by excitation at a wavelength of 350 nm or more” value in data set [2] (background art) is given as “substantially invisible to the naked eye”.

Consider `Nc1nc(-c2ccc(-c3ccc(-c4cccs4)s3)s2)c2ncn([C@H]3C[C@H](O)[C@@H](CO)O3)c2n1` [dsss, 2-amino-6-(2,2′,5′,2″-terthien-5-yl)-9-(2-deoxy-β-D-ribofuranosyl)purine], for which, in data set [1], the Absorption maximum is reported as 414 nm, the Excitation wavelength amounted to 419 nm, the “Fluorescence intensity (ε × φ)” value turned out to be 4928 and the Fluorescence wavelength worked out at 508 nm. Also, in data set [1], the “Molar absoption coefficient ε” value came out at 44800 M⁻¹ cm⁻¹, the Stokes shift worked out at 89 nm and the “Quantum yield (φ)” value came to 0.11.

For `Nc1nc(-c2nccs2)c2ncn([C@H]3C[C@H](O)[C@@H](CO)O3)c2n1` [dv, reference compound], the “Stability of nucleoside derivative under basic conditions” value is “low stability”. Further, in data set [1], the Absorption maximum is on record as 363 nm; the Excitation wavelength was 363 nm and 357 nm; the “Fluorescence intensity (ε × φ)” value is 3444; the Fluorescence wavelength is on record as 461 nm. In data set [1], the “Molar absoption coefficient ε” value came out at 8400 M⁻¹ cm⁻¹, the Stokes shift was 104 nm and the “Quantum yield (φ)” value was found to be 0.41.

As for `Nc1nc(-c2cccs2)c2[nH]cnc2n1` [s, 2-amino-6-thienylpurine], in data set [2] (background art), the Fluorescence wavelength is reported as 435 nm and the Maximum excitation wavelength is on record as 348 nm.

Regarding `Nc1nc(-c2ccc(-c3cccs3)s2)c2ncn([C@@H]3O[C@H](COP(=O)(O)OP(=O)(O)OP(=O)(O)O)[C@@H](O)[C@H]3O)c2n1` [ssTP], the “Incorporation into RNA opposite Pa in template DNA” value on T7 RNA polymerase is reported as “selectively incorporated into RNA depending on Pa”.
